ChEMBL document CHEMBL1201862, “PubChem BioAssay data set” (2004)
Calls of active or inactive are those of the source.

Legend:
[1] = target: T1, Replicative DNA helicase DnaB (Mycobacterium tuberculosis, UniProt P9WMR3); assay: DnaB intein splicing inhibitors, dose response, biochemical, cell-free fluorescence (AID 449749); format: functional
T1 sequence (P9WMR3 whole entry): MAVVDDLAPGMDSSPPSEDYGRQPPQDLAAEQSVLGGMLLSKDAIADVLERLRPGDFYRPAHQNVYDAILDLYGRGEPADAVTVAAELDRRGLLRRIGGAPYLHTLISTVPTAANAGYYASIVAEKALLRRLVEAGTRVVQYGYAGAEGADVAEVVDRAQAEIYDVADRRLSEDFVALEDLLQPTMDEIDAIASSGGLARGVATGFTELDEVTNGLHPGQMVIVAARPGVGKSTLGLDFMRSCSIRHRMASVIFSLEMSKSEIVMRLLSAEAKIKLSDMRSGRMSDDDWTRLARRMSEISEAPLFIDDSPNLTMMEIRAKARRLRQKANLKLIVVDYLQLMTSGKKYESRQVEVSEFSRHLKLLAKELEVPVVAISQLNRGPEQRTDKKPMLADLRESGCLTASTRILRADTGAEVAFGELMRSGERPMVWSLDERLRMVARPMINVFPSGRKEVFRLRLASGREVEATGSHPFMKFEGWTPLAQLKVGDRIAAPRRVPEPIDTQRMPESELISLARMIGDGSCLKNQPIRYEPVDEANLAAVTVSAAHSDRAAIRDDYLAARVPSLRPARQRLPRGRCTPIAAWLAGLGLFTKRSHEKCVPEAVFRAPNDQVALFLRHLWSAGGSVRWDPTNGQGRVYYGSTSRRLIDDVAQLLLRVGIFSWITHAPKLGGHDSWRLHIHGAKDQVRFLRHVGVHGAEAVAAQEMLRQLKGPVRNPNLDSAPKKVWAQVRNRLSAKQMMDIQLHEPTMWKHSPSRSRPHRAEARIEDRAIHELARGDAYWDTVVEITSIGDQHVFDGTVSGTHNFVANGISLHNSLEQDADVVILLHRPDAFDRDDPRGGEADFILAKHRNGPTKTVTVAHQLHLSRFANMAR

[2] = target: T2, Microphthalmia-associated transcription factor (Homo sapiens, UniProt O75030); assay: TRPM1 promoter luciferase signal decrease, dose response, MITF inhibitor project, cell-based, SK-MEL-5, cherry-picked, set 3 (AID 493073); format: functional
T2 sequence (O75030 whole entry): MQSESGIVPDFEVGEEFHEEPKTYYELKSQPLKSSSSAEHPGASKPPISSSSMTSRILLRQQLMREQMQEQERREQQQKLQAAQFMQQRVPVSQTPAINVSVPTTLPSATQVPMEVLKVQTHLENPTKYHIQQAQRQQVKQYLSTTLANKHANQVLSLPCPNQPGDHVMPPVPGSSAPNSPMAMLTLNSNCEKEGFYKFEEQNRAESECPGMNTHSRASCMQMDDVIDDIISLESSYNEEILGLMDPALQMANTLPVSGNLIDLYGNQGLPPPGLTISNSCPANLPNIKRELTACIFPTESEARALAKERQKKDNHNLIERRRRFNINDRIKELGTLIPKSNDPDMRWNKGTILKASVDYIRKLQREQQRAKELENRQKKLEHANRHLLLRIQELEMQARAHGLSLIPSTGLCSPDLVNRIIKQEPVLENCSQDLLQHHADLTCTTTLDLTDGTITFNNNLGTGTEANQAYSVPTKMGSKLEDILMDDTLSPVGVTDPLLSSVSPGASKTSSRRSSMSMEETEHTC

Fatty acid synthase [3] = target: T3, Fatty acid synthase (Homo sapiens, UniProt P49327); assay: FAS thioesterase domain inhibitors, dose response, biochemical, endpoint fluorescence intensity, uHTS hits (AID 624327); format: functional;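 further: fluorescence from hydrolysis of an O-methyl fluorescein acyl ester substrate by the enzyme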
Protein RecA = target: T4, Protein RecA (Mycobacterium tuberculosis, UniProt P9WHJ3); assay: Fluorescence Cell-Free Homogeneous Dose Retest to Identify Inhibitors of RecA-Intein Splicing Activity. [Related pubchem assays (depositor defined):AID2097, AID2223, AID489010, AID492950]; format: functional
T4 sequence (P9WHJ3 whole entry): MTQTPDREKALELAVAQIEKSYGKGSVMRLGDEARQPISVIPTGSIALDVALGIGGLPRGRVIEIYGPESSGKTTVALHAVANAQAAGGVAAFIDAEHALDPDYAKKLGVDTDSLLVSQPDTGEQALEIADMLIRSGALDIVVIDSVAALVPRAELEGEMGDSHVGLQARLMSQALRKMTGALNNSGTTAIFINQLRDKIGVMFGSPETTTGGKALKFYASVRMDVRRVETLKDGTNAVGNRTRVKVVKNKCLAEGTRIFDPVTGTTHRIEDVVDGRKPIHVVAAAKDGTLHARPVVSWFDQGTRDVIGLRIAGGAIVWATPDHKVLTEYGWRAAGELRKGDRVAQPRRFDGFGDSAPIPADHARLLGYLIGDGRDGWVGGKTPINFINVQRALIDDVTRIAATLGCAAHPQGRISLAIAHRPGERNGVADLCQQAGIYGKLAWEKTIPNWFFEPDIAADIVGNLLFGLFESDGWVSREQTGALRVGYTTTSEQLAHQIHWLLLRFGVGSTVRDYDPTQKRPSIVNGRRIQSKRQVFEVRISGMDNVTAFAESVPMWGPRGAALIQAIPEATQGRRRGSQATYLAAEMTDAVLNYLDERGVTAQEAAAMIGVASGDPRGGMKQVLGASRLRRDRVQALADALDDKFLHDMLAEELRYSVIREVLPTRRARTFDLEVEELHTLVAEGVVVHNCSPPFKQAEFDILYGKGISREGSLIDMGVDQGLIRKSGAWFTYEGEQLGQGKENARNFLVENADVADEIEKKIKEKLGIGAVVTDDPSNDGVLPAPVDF

Fatty acid synthase [4] = target: T3, Fatty acid synthase; assay: FAS thioesterase domain inhibitors, dose response, biochemical, kinetic fluorescence intensity (AID 624326); format: functional;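 further: rate of fluorescence rise from hydrolysis of a fluorogenic O-methyl fluorescein ester substrate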
HEK293 = assay: inhibitors of LMP1-driven NF-kB reporter, dose response, cell-based, HEK293, luciferase, cherry-pick (AID 588343); format: functional; settings: Homo sapiens
H9c2 = assay: cells; format: functional, cell-based; settings: Rattus norvegicus, H9c2, Myocardium;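 further: confirmatory concentration-response retest of ultra-high-throughput screening hits for modulation of myocardial damage; cell death induced by hydrogen peroxide oxidative stress; compound pretreatment for 60 min then peroxide exposure for 2 h; potency is for protecting the cells against peroxide damage rather than for killing them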
[5] = target: T5, Rac GTPase-activating protein 1 (Homo sapiens, UniProt Q9H0H5); assay: MgcRacGAP GTPase-activating activity inhibitors, confirmation, biochemical, ADP Hunter fluorescence, primary and confirmatory (AID 624330); format: functional
T5 sequence (Q9H0H5 whole entry): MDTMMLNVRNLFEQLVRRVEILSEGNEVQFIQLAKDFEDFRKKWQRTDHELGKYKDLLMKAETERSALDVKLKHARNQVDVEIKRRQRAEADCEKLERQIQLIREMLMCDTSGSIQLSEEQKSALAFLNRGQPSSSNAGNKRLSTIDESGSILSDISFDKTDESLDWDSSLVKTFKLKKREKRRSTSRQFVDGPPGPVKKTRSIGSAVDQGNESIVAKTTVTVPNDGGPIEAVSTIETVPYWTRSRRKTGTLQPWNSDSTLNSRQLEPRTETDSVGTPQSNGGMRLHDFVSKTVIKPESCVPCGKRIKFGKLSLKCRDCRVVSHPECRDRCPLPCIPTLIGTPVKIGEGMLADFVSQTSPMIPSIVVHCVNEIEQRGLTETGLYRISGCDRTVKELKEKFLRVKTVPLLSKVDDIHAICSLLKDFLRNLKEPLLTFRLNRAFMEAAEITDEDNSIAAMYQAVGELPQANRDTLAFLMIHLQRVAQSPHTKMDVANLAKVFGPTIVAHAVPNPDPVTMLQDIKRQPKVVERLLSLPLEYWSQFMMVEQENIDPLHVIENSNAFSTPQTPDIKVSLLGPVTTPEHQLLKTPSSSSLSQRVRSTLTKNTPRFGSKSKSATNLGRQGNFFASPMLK

[6] = target: Eukaryotic translation initiation factor 4E (Mus musculus, UniProt P63073); assay: eIF4E–eIF4G protein interaction inhibitors, dose response, biochemical, TR-FRET (AID 855); format: functional;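 further: potency for disrupting eIF4E binding to eIF4GI seen as loss of FRET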
Cytochrome P450 3A4 = Cytochrome P450 3A4 (Homo sapiens, UniProt P08684);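 further: CYP3A4 tested as one member of a cytochrome P450 panel screen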
[7] = target: Peroxisome proliferator-activated receptor gamma/Nuclear receptor coactivator 1 (Homo sapiens, UniProt P37231); assay: TR-FRET dose response biochemical High Throughput Screening assay for agonists of the steroid receptor coactivator 1 (SRC-1) recruitment by the peroxisome proliferator-activated receptor gamma (PPAR gamma): non-selective agonists. [Related pubchem assays (depositor defined):AID1300, AID1808, AID504735, AID631]; format: protein assay
[8] = target: Peroxisome proliferator-activated receptor gamma/Nuclear receptor coactivator 2 (Homo sapiens, UniProt P37231); assay: TR-FRET dose response biochemical High Throughput Screening assay for agonists of the steroid receptor coactivator 2 (SRC-2) recruitment by the peroxisome proliferator-activated receptor gamma (PPAR gamma): non-selective agonists. [Related pubchem assays: 1297, 1032 ]; format: functional
[9] = target: Peroxisome proliferator-activated receptor gamma/Nuclear receptor coactivator 3 (Homo sapiens, UniProt P37231); assay: TR-FRET dose response biochemical High Throughput Screening assay for agonists of the steroid receptor coactivator 3 (SRC-3) recruitment by the peroxisome proliferator-activated receptor gamma (PPAR gamma): non-selective agonists. [Related pubchem assays: 1301 (Confirmation screen.), 1048 (Primary screen.)]; format: functional
HeLa = assay: HeLa cell cytotoxicity, dose response, cytotoxicity control for MITF activator project, CellTiter-Glo luminescence, cherry-pick samples (AID 540259); format: functional, cell-based; settings: Homo sapiens
[10] = inhibitors of intracellular T. cruzi replication, confirmation, NIH3T3 host cells, beta-gal luminescence (AID 2044); format: functional, cell-based;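 further: intracellular parasites grown in NIH/3T3 mouse fibroblasts as host cells; luminescent beta-galactosidase reporter signal from transgenic T. cruzi replicating inside host cells; inhibitors lower the luminescence signal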
[11] = cytotoxicity toward NIH3T3 fibroblasts, dose response, counter-screen, cell-based, ATP luminescence, mouse fibroblasts (AID 2010); format: functional;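 further: cells exposed to compound for about 90 hours before reading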
H4 = assay: Luminescence Cell-Based Dose Response HTS to Identify Activators of 5'UTR Stem-Loop Driven Prion Protein mRNA Translation in H4 Neuroglioblastoma Cells. [Related pubchem assays: 1829 (Project Summary), 1814 (Primary HTS)]; format: functional; settings: Homo sapiens
[12] = Luminescence Cell-Based Dose Confirmation HTS to Identify Activators of 5'UTR Stem-Loop Driven Alpha-Synuclein mRNA Translation in H4 Neuroglioblastoma Cells. [Related pubchem assays: 1829 (Project Summary), 1814 (Primary HTS)]; format: functional
[13] = Luminescence Cell-Based Dose Response HTS to Identify Activators of Luciferase Translation or Activity in H4 […] Cells. [Related pubchem assays: 1829 (Project Summary), 1814 (Primary HTS)]; format: functional
[14] = target: Glucose-6-phosphate 1-dehydrogenase (Homo sapiens, UniProt P11413); assay: human G6PD enzyme inhibitors, dose response, selectivity assay for P. falciparum G6PD inhibitor project, biochemical, fluorescence (AID 504792); format: functional
Cytochrome P450 2C9 = Cytochrome P450 2C9 (Homo sapiens, UniProt P11712)
[15] = Luminescence Cell-Based Dose Retest to Confirm Inhibitors of Cancer Stem Cells. [Related pubchem assays (depositor defined):AID2717, AID2721]; format: functional; settings: Homo sapiens

Chain of Peroxisome proliferator-activated receptor gamma/Nuclear receptor coactivator 3 (P37231 whole entry): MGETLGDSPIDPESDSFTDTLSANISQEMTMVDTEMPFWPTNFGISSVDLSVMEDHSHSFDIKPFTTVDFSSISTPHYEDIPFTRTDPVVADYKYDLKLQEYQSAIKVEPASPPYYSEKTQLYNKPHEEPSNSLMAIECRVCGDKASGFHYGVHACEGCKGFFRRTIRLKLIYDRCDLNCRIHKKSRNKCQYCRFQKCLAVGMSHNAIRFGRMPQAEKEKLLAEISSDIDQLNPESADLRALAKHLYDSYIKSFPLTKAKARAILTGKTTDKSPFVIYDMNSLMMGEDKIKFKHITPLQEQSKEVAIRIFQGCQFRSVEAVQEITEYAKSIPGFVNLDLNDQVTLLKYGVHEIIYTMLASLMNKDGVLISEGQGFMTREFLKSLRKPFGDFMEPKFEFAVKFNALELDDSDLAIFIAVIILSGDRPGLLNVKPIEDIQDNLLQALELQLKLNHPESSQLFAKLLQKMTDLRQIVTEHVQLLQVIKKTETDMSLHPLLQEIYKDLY
Chain of Peroxisome proliferator-activated receptor gamma/Nuclear receptor coactivator 3 (Q9Y6Q9 whole entry, further chain): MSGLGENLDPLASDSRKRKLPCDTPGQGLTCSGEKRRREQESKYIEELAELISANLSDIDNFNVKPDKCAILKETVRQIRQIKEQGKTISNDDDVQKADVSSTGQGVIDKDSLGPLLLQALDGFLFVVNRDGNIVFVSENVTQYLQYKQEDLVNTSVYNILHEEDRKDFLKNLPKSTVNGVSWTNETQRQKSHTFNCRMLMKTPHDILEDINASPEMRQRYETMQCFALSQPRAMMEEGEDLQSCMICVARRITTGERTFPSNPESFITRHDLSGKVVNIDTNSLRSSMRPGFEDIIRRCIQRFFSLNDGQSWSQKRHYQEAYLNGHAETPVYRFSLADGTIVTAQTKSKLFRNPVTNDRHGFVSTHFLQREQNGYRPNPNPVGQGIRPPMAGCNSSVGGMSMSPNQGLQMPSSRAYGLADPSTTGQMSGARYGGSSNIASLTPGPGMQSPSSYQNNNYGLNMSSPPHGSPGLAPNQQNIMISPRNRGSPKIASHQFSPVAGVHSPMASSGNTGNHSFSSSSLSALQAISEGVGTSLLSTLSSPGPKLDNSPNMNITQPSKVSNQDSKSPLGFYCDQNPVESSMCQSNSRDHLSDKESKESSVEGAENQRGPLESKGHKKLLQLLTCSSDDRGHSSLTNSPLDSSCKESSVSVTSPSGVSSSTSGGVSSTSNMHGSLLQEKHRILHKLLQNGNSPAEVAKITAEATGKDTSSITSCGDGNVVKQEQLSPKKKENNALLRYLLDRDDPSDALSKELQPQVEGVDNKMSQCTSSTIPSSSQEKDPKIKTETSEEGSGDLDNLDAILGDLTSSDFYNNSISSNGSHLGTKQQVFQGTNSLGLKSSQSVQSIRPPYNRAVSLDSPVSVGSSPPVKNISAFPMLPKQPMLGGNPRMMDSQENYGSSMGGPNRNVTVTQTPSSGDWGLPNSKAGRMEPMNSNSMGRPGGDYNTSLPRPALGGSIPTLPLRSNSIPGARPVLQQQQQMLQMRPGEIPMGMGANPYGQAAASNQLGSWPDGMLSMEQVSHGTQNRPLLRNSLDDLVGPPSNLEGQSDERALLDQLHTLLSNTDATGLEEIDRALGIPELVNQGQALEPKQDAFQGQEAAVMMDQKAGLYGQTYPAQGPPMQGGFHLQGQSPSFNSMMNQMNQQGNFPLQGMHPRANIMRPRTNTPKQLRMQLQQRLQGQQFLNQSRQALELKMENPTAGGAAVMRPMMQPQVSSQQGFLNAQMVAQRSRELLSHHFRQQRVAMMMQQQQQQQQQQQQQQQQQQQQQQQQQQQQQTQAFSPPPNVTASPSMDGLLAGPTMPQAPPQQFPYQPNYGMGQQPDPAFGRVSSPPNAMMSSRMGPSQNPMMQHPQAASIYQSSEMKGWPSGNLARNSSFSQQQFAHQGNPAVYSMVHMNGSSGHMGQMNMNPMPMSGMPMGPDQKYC
Chain of Peroxisome proliferator-activated receptor gamma/Nuclear receptor coactivator 1 (P37231 whole entry): as the sequence (P37231 whole entry) above
Chain of Peroxisome proliferator-activated receptor gamma/Nuclear receptor coactivator 1 (Q15788 whole entry, further chain): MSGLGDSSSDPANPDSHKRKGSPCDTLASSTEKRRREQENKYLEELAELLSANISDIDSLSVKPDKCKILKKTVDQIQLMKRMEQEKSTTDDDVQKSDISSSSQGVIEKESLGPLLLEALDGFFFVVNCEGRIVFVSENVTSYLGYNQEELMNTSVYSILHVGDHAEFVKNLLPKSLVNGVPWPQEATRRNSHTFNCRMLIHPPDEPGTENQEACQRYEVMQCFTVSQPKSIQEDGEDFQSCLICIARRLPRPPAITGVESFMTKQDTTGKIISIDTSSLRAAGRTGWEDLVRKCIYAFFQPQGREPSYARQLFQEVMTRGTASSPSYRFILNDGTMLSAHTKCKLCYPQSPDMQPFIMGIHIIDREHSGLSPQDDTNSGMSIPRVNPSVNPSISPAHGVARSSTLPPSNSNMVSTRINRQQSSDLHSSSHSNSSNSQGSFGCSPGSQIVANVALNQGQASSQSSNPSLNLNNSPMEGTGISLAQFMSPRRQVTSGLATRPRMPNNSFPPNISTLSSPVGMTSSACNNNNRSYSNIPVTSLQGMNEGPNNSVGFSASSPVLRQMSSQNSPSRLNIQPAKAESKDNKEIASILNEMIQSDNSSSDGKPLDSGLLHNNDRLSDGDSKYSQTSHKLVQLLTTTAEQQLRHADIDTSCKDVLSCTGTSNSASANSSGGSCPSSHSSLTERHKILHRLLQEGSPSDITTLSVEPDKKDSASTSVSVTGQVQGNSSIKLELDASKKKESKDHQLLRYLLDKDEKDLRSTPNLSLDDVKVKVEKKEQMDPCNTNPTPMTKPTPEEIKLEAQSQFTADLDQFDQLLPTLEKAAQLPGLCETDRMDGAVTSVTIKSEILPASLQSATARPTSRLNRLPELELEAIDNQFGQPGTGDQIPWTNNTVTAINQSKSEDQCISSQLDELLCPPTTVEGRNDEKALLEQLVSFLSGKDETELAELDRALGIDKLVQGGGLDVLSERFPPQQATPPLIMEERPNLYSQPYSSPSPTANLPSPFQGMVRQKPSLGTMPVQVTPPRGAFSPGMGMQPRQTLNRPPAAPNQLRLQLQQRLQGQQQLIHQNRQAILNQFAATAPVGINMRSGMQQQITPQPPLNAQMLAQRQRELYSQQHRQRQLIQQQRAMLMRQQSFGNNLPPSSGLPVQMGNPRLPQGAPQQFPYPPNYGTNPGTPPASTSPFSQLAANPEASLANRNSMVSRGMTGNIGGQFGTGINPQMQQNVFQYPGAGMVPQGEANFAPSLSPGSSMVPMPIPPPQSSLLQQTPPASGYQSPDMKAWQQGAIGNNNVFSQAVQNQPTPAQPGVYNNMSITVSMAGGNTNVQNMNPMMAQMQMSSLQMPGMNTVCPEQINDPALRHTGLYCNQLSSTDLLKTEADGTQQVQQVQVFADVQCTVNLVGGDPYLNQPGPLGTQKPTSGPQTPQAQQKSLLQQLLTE
Chain of Cytochrome P450 3A4 (P08684 whole entry): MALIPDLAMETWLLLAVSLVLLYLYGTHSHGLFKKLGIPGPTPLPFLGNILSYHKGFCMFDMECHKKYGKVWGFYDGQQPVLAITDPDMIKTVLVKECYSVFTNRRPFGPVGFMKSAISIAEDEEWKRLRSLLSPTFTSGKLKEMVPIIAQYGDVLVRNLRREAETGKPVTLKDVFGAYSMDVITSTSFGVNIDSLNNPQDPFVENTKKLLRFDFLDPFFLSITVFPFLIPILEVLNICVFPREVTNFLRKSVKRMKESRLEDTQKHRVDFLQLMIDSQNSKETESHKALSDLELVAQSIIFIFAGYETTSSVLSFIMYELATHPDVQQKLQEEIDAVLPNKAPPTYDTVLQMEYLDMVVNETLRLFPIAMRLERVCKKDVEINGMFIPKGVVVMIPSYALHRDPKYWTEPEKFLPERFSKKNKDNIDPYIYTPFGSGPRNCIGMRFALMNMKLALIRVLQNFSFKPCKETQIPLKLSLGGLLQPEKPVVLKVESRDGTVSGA
Chain of Eukaryotic translation initiation factor 4E (P63073 whole entry): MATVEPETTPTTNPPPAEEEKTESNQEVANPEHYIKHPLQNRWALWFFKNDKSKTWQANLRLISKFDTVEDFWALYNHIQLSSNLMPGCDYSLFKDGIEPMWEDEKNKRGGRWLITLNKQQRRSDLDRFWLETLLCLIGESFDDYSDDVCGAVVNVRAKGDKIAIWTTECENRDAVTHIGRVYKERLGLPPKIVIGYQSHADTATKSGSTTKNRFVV

CC(=O)N(C1CC(C)C(C#N)(C#N)C1(C#N)C#N)N(C)C (centres undefined)
AC50 [1]: 1.68 µM (active) | AC50 [2]: 9.24 µM (active) | IC50 (Fatty acid synthase [3]): 8.68 µM (active) | EC50 (Protein RecA): 3.17 µM (active) | IC50 (Fatty acid synthase [4]): 6.1 µM (active)

COc1ccc(-c2oc3ncnc(NCCN4CCOCC4)c3c2-c2ccc(OC)cc2)cc1
AC50 (HEK293): 9.19 µM (active) | IC50 (H9c2): > 79 µM (inactive)

COc1ccccc1CN1CCN(C(=O)c2ccncc2)CC1
IC50 [5]: 120 µM (active) | IC50 [6]: > 64 µM (inactive)

Cc1cc(Cl)ccc1NC(=O)CN1CCC(C(O)(c2ccccc2)c2ccccc2)CC1
AC50 (Cytochrome P450 3A4): inconclusive

COc1cc2c(cc1OC)C1=NC(=O)CN1C(SCc1ccccc1C)=N2
EC50 [7]: > 79.4 µM (inactive) | EC50 [8]: 82.7 µM (not active) | EC50 [9]: > 79.4 µM (not active)

CC(C)(C)C(=O)c1cnc(Nc2ccccc2Cl)s1
AC50 (HeLa): 121 µM (active)

Cc1ccc(-c2nnc(O)c3ccccc23)cc1S(=O)(=O)NCC1CCCO1 (centres undefined)
AC50 [2]: 53.2 µM (active) | IC50 (H9c2): 15.3 µM (active)

Cl.OCCN1CCN(CCOc2cccc(Cl)c2)CC1
EC50 [10]: 413 nM (active) | AC50 (Cytochrome P450 3A4): inconclusive | EC50 [11]: > 60 µM (inconclusive)

COc1cccc(C(=O)CC(=O)C(=O)Nc2ccc(C)cc2Cl)c1
AC50 (HEK293): 35 µM (active)

O=C1CCCc2ccccc2N1Cc1cccc(Cl)c1
AC50 (Cytochrome P450 3A4): inconclusive

CC(=O)c1sc(N/N=C/c2cccc(O)c2)nc1C
AC50 (HeLa): 77.2 µM (active) | EC50 (H4): 23.2 µM (active) | EC50 [12]: 6.61 µM (active) | EC50 [13]: 8.4 µM (active)

Cc1cc(SCC(=O)N/N=C/c2ccco2)nc2ccccc12
IC50 [14]: 57.4 µM (inactive)

O=c1c2c(-c3cccs3)csc2[nH]c(=S)n1-c1ccccc1
AC50 (Cytochrome P450 2C9): 8.91 µM (inconclusive) | EC50 [7]: 12.8 µM (inactive) | EC50 [8]: 11.6 µM (not active) | EC50 [9]: > 79.4 µM (not active)

CC1CCN(C(=O)/C(=C\c2cccs2)NC(=O)c2ccccc2)CC1
AC50 (HEK293): > 350 µM (inactive)

CCOC(=O)c1c(NC(=O)C(c2ccccc2)c2ccccc2)sc2c1C1CCN2CC1.Cl
EC50 [10]: 1860 nM (active) | AC50 (Cytochrome P450 3A4): inconclusive | EC50 [11]: > 60 µM (not active) | AC50 [15]: 1.09 µM (active)

Cc1cc(C(=O)OCC(=O)c2ccc(Br)s2)c(C)o1
EC50 [7]: > 79.4 µM (inactive) | EC50 [8]: 14.6 µM (not active) | EC50 [9]: > 79.4 µM (not active)

N#Cc1cc(C#N)c(N2CCN(c3ccccn3)CC2)nc1N
AC50 (HeLa): 31.7 µM (active)
